How the values were obtained:
[1] = Thermodynamic solubility at pH 7.4; type: physicochemical; details: Cu(II) complexes; pH 7.40; 20 mM HEPES; 25.0°C
Procedure: Thermodynamic solubility (S) was measured for the new ligands, L^7 and L^8, since data for the rest of the series was previously reported (9), and for selected Cu(II) complexes: 1, 5 and 6. Solubility was measured for the saturated solutions in water at pH 7.40 in 20 mM HEPES at 25.0 ± 0.1 °C. The concentration was determined by UV-Vis spectrophotometry using the stock solutions of the compounds with known concentrations dissolved in 100% DMSO, 50% and 25% (v/v) DMSO/buffered aqueous solutions for the calibration.

[2] = test system: DNA-EB system; experiment: DNA-ethidium bromide fluorescence competition; type: binding
Procedure: The fluorescence emission experiments were carried out in a Perkin Elmer LS 55 spectrofluorimeter. A pulsed Xenon lamp (50 Hz) provided the excitation light. A thermostated water bath recycler linked to the cell holder provided temperature control within ± 0.1 °C. The measurements were done in a 1000 µL quartz cell with an optical path length of 1.0 cm with the complexes solution added directly to the DNA-EB (ethidium bromide) solution in the cell. A glass syringe connected to a Mitutoyo micrometric screw added accurate volumes each time (one complete turn of the screw is 8.2 µL, 1/50 of a turn is the minimum possible addition).
Moreover, this complex reduces the emission of the EB-DNA system to ca. 40 % of its initial intensity with an interaction constant of (1.18 ± 0.03) × 10^4 M^−1 (Fig. S22, constant calculated with HypSpec2014 (28)).
Considering the results of the melting temperature assay, the DNA-EB fluorescence quenching was also used to test complex 7. […] The accessible fraction fa was determined as 0.26 and the interaction constant as (1.44 ± 0.02) ×10^5 M^−1 (HypSpec2014 (28)). As EB has a second mode of interaction with DNA due to electrostatic interactions on the external part of the biomolecule backbone (30), it is possible that the complexes are only being able to reach for this fraction. […]

[3] = test system: plasmid DNA (H2B-GFP); experiment: Agarose gel electrophoresis of plasmid DNA (DNA migration assay); type: biochemical; details: 200 and 400 μM; overnight; room temperature
Procedure: The nature of the interaction between the complexes and pure plasmid DNA was evaluated by agarose gel electrophoresis as described previously with minor modifications (21). Briefly, free ligands, copper complexes, and cisplatin (200 and 400 μM; in 20 μL total volume) were incubated overnight at room temperature with plasmid DNA (200 ng, H2B-GFP, Addgene #11680). NaN3 (final: 37.5 mM in ddH2O) was used as a ROS scavenger. Samples were run on a 1% agarose gel (100 V, 60 min). The experiments were carried out with two biological replicates, and ImageJ software was used to quantify and analyse the intensity of the bands.
In addition to thermal denaturation, we performed a cell-free DNA binding assays followed by gel electrophoresis to further investigate the nature of the interaction between the complexes and DNA. The assay relies on the fact that the relative amount of the supercoiled form of plasmid DNA will change upon the occurrence of nicks since the relaxed form migrates slower and can be easily detected on the gel. […] The ligands had little to no effect on DNA migration except L^7 (Fig. S24A). However, incubation of plasmid DNA with complexes 1 - 8 confirmed binding to DNA and changed the supercoiling status by increasing the nicked circular form (Fig. S24). […] To understand whether the induction of DNA nicks requires ROS, the samples were pre-incubated with a ROS scavenger, NaN3. […]

Compound	thermodynamic solubility S 7.4 [1]	interaction constant ([2]; DNA-EB fluorescence quenching, HypSpec2014)	emission of the EB-DNA system, % of its initial intensity ([2]; titration 0 – 51.6 µM, HEPES pH 7.4)	effect on plasmid DNA migration / nicking [3]
[Cu+2].[O-]C(=NN=Cc1ccc2cccc([O-])c2n1)c1ccc(F)cc1 [Complex 3, [Cu(L^3)]3]	< 1 µM	–	–	–
CC(=O)[O-].O=C(NN=Cc1ccc2cccc([O-])c2n1)c1ccccc1.[Cu+2] [Complex 1, [Cu(HL^1)(AcO)]]	–	(1.18 ± 0.03) × 10^4 M^−1	ca. 40%	highest nicking efficiency

Reference: article PMC10072326, “Promising anticancer agents based on 8-hydroxyquinoline hydrazone copper(II) complexes” (Frontiers in Chemistry, 2023)
